Measurements reported in BindingDB's records for doi:10.1016/j.bmcl.2019.04.027 (Gilead Sciences, 2019).

Legend:
[1] = Inhibition of NS5A in HCV genotype 2a JFH1 infected in human HuH7 replicon cells assessed as reduction in viral replication after 3 days by luciferase reporter gene assay
[2] = Inhibition of NS5A in HCV genotype 4a ED43 infected in human HuH7 replicon cells assessed as reduction in viral replication after 3 days by luciferase reporter gene assay
[3] = Inhibition of NS5A in HCV genotype 3a S52 infected in human HuH7 transient chimeric replicon cells assessed as reduction in viral replication after 3 days by luciferase reporter gene assay
[4] = Inhibition of NS5A in HCV genotype 1b Con1 infected in human HuH7 replicon cells assessed as reduction in viral replication after 3 days by luciferase reporter gene assay
[5] = Inhibition of NS5A in HCV genotype 1a H77 infected in human HuH7 replicon cells assessed as reduction in viral replication after 3 days by luciferase reporter gene assay
[6] = Inhibition of NS5A in HCV genotype 2b MD2b-1 infected in human HuH7 replicon cells assessed as reduction in viral replication after 3 days by luciferase reporter gene assay
[7] = Inhibition of NS5A L31M mutant in HCV genotype 2a J6 (M31) infected in human HuH7 replicon cells assessed as reduction in viral replication after 3 days by luciferase reporter gene assay
[8] = Inhibition of NS5A in wild type HCV genotype 1b infected in human HuH7 replicon cells assessed as reduction in viral replication after 3 days by luciferase reporter gene assay
[9] = Inhibition of NS5A Q30E mutant in HCV genotype 1a infected in human HuH7 replicon cells assessed as reduction in viral replication after 3 days by luciferase reporter gene assay
[10] = Inhibition of NS5A L31M mutant in HCV genotype 2a JFH1 (M31) infected in human HuH7 replicon cells assessed as reduction in viral replication after 3 days by luciferase reporter gene assay
[11] = Inhibition of NS5A Q30R mutant in HCV genotype 1a infected in human HuH7 replicon cells assessed as reduction in viral replication after 3 days by luciferase reporter gene assay
[12] = Inhibition of NS5A in wild type HCV genotype 1a infected in human HuH7 replicon cells assessed as reduction in viral replication after 3 days by luciferase reporter gene assay
[13] = Inhibition of NS5A L31M mutant in HCV genotype 1a infected in human HuH7 replicon cells assessed as reduction in viral replication after 3 days by luciferase reporter gene assay
[14] = Inhibition of NS5A Y93H mutant in HCV genotype 1a infected in human HuH7 replicon cells assessed as reduction in viral replication after 3 days by luciferase reporter gene assay
[15] = Inhibition of NS5A Q30H mutant in HCV genotype 1a infected in human HuH7 replicon cells assessed as reduction in viral replication after 3 days by luciferase reporter gene assay
[16] = Inhibition of NS5A M28T mutant in HCV genotype 1a infected in human HuH7 replicon cells assessed as reduction in viral replication after 3 days by luciferase reporter gene assay
[17] = Inhibition of NS5A Y93C mutant in HCV genotype 1a infected in human HuH7 replicon cells assessed as reduction in viral replication after 3 days by luciferase reporter gene assay
[18] = Inhibition of NS5A in HCV genotype 4a ED43 infected in human HuH7 transient chimeric replicon cells assessed as reduction in viral replication after 3 days by luciferase reporter gene assay
[19] = Inhibition of NS5A Y93H mutant in HCV genotype 1b infected in human HuH7 replicon cells assessed as reduction in viral replication after 3 days by luciferase reporter gene assay
[20] = Inhibition of NS5A in HCV genotype 6a HK6 infected in human HuH7 replicon cells assessed as reduction in viral replication after 3 days by luciferase reporter gene assay
[21] = Inhibition of NS5A in HCV genotype 6e D88 infected in human HuH7 replicon cells assessed as reduction in viral replication after 3 days by luciferase reporter gene assay
[22] = Inhibition of NS5A in HCV genotype 5a SA13 infected in human HuH7 replicon cells assessed as reduction in viral replication after 3 days by luciferase reporter gene assay
[23] = Inhibition of NS5A L31M mutant in patient derived HCV genotype 2b MD2b-1 infected in human HuH7 replicon cells assessed as reduction in viral replication after 3 days by luciferase reporter gene assay
[24] = Inhibition of NS5A L31M mutant in HCV genotype 2a JFH1 infected in human HuH7 replicon cells assessed as reduction in viral replication after 3 days by luciferase reporter gene assay
[25] = Inhibition of NS5A in HCV genotype 2a JFH1 (L31) infected in human HuH7 replicon cells assessed as reduction in viral replication after 3 days by luciferase reporter gene assay
[26] = Inhibition of NS5A in HCV genotype 2a J6 infected in human HuH7 replicon cells assessed as reduction in viral replication after 3 days by luciferase reporter gene assay
[27] = Inhibition of NS5A in HCV genotype 3a S52 infected in human HuH7 replicon cells assessed as reduction in viral replication after 3 days by luciferase reporter gene assay

Row | Structure (SMILES) | EC50 [2] [nM] | EC50 [3] [nM] | EC50 [4] [nM] | EC50 [5] [nM] | EC50 [6] [nM] | EC50 [7] [nM] | EC50 [10] [nM] | EC50 [18] [nM] | also measured
1 | COC[C@H]1C[C@@H](c2ncc(-c3ccc4c(c3)COc3cc5c(ccc6nc([C@@H]7C[C@H](C)CN7C(=O)[C@@H](NC(=O)OC)C(C)C)[nH]c65)cc3-4)[nH]2)N(C(=O)[C@H](NC(=O)OC)c2ccccc2)C1 | 0.011 | 0.025 | 0.017 | 0.013 | 0.015 | 0.014 |  |  | EC50 [1]: 0.006 nM
2 | COC[C@H]1C[C@@H](c2nc3ccc4cc5c(cc4c3[nH]2)OCc2cc(-c3cnc([C@@H]4CCCN4C(=O)[C@@H](NC(=O)OC)C(C)C)[nH]3)ccc2-5)N(C(=O)[C@@H](NC(=O)OC)C(C)C)C1 |  | 0.024 | 0.026 | 0.021 | 0.135 | 0.28 | 0.008 | 0.014 | EC50 [8]: 0.026 nM; EC50 [9]: 10 nM; EC50 [11]: 0.22 nM; EC50 [12]: 0.037 nM; EC50 [13]: 0.37 nM; EC50 [14]: 4.7 nM; EC50 [15]: 0.15 nM; EC50 [16]: 0.19 nM; EC50 [17]: 0.22 nM; EC50 [19]: 0.086 nM
3 | COC(=O)N[C@H](C(=O)N1CCC[C@H]1c1ncc(-c2cc3c4c(c2)OCc2cc(-c5cnc([C@@H]6CCCN6C(=O)[C@@H](NC(=O)OC)C(C)C)[nH]5)cc(c2-4)OC3)[nH]1)C(C)C |  | 0.055 | 0.022 | 0.029 |  | 8.81 |  | 0.029 | EC50 [20]: 0.016 nM; EC50 [21]: 1.16 nM; EC50 [22]: 0.056 nM; EC50 [23]: 1.77 nM; EC50 [24]: 5.9 nM; EC50 [25]: 0.007 nM
4 | COC[C@H]1C[C@@H](c2ncc(-c3ccc4c(c3)COc3cc5c(ccc6nc([C@@H]7CCCN7C(=O)[C@@H](NC(=O)OC)C(C)C)[nH]c65)cc3-4)[nH]2)N(C(=O)[C@H](NC(=O)OC)c2ccccc2)C1 | 0.007 | 0.017 | 0.019 | 0.011 | 0.009 | 0.013 |  |  | EC50 [1]: 0.006 nM
5 | COC[C@H]1C[C@@H](c2ncc(-c3ccc4c(c3)COc3cc5c(ccc6nc([C@@H]7C[C@H]8C[C@@H]8N7C(=O)[C@@H](NC(=O)OC)C(C)C)[nH]c65)cc3-4)[nH]2)N(C(=O)[C@H](NC(=O)OC)c2ccccc2)C1 | 0.009 | 0.018 | 0.011 | 0.01 | 0.046 | 0.113 |  |  | EC50 [1]: 0.006 nM
6 | CCO[C@H]1C[C@@H](c2nc3ccc4cc5c(cc4c3[nH]2)OCc2cc(-c3cnc([C@@H]4CCCN4C(=O)[C@@H](NC(=O)OC)C(C)C)[nH]3)ccc2-5)N(C(=O)[C@@H](NC(=O)OC)C(C)C)C1 |  | 0.048 | 0.018 | 0.015 | 0.265 | 0.378 | 0.007 | 0.02 | 
7 | COC[C@H]1C[C@@H](c2ncc(-c3cc4c5c(c3)OCc3cc(-c6cnc([C@@H]7CC[C@H](C)N7C(=O)[C@@H](NC(=O)OC)C(C)C)[nH]6)cc(c3-5)OC4)[nH]2)N(C(=O)[C@H](NC(=O)OC)c2ccccc2)C1 | 0.013 | 0.12 | 0.016 | 0.016 | 0.29 |  |  |  | EC50 [20]: 0.022 nM; EC50 [21]: 0.11 nM; EC50 [22]: 0.081 nM; EC50 [26]: 0.48 nM
8 | COC(=O)N[C@H](C(=O)N1CCC[C@H]1c1ncc(-c2ccc3c(c2)COc2cc4c(ccc5nc([C@@H]6CC[C@H](C)N6C(=O)[C@@H](NC(=O)OC)C(C)C)[nH]c54)cc2-3)[nH]1)C(C)C | 0.02 |  | 0.018 | 0.011 |  | 0.234 | 0.019 |  | EC50 [27]: 0.077 nM
9 | COC[C@H]1C[C@@H](c2ncc(-c3ccc4c(c3)COc3cc5c(ccc6nc([C@@H]7C[C@H](COC)CN7C(=O)[C@@H](NC(=O)OC)C(C)C)[nH]c65)cc3-4)[nH]2)N(C(=O)[C@@H](NC(=O)OC)C(C)C)C1 |  | 0.206 | 0.034 | 0.024 | 0.18 | 0.061 | 0.01 | 0.036 | 
10 | COC(=O)N[C@H](C(=O)N1[C@@H](C)CC[C@H]1c1ncc(-c2ccc3c(c2)COc2cc4c(ccc5nc([C@@H]6CC[C@H](C)N6C(=O)[C@@H](NC(=O)OC)C(C)C)[nH]c54)cc2-3)[nH]1)C(C)C |  | 0.02 | 0.012 | 0.008 | 0.063 | 0.28 | 0.014 | 0.008 | 
11 | COC(=O)N[C@H](C(=O)N1CCC[C@H]1c1ncc(-c2ccc3c(c2)COc2cc4c(ccc5nc([C@@H]6C[C@H](C)CN6C(=O)[C@@H](NC(=O)OC)C(C)C)[nH]c54)cc2-3)[nH]1)C(C)C |  | 0.018 | 0.018 | 0.011 | 0.132 | 0.443 | 0.007 | 0.011 | 
12 | COC[C@H]1C[C@@H](c2nc3ccc4cc5c(cc4c3[nH]2)OCc2cc(-c3cnc([C@@H]4CC[C@H](C)N4C(=O)[C@@H](NC(=O)OC)C(C)C)[nH]3)ccc2-5)N(C(=O)[C@@H](NC(=O)OC)C(C)C)C1 |  | 0.061 | 0.017 | 0.011 | 0.157 | 0.067 | 0.012 | 0.015 | 
13 | COC[C@H]1C[C@@H](c2ncc(-c3ccc4c(c3)COc3cc5c(ccc6nc([C@@H]7C[C@@H]8C[C@H]8N7C(=O)[C@@H](NC(=O)OC)C(C)C)[nH]c65)cc3-4)[nH]2)N(C(=O)[C@H](NC(=O)OC)c2ccccc2)C1 | 0.009 | 0.025 | 0.02 | 0.013 | 0.028 | 0.021 |  |  | EC50 [1]: 0.007 nM
14 | COC[C@H]1C[C@@H](c2nc3ccc4cc5c(cc4c3[nH]2)OCc2cc(-c3cnc([C@@H]4C[C@H](C)CN4C(=O)[C@@H](NC(=O)OC)C(C)C)[nH]3)ccc2-5)N(C(=O)[C@@H](NC(=O)OC)C(C)C)C1 |  | 0.058 | 0.019 | 0.014 | 0.166 | 0.106 | 0.009 | 0.022 | 
